Reference: patent US9089543B2, “Anti-inflammatory composition containing macrolactin A and a derivative thereof as active ingredients” (DAEWOO PHARMACEUTICAL IND. CO., LTD., priority 2009, dated 2015)
“Also recorded” adds a separate entry of the source.

Tests used:
iNOS protein = test: Formation of iNOS protein by western blot in LPS-stimulated RAW264.7 cells; type: cell-based, murine; details: RAW264.7, LPS 0.1 μg/ml, 16 hours
Experimental: (§1) RAW264.7, a murine macrophage cell line, was obtained from Korean Cell Line Bank (KCLB). It was cultured in Dulvecco's modified Eagle's medium (DMEM, LONZA) containing 10% fetal bovine serum (FBS, LONZA) and 1% penicillin/streptomycin (Sigma) in an incubator at 37° C. under 5% CO2 and then sub-cultured when the cell density reached 80%. After RAW264.7 cells were cultured for 24 hours, MA (1-100 μM), MMA (10 μM), SMA (10 μM) and hydrocortisone (10 μM), which is a well-known substance having anti-inflammatory activity, were added. One hour after the addition, LPS (0.1 or 1.0 μg/ml, Sigma) was added to the mixture, which was then cultured for 8 or 16 hours. Dimethyl sulfoxide (hereinafter, “DMSO”) was used as a negative control, while LPS (0.1 or 1.0 μg/ml, Sigma) was used as a positive control without adding the macrolactin compounds.
(§2) The effect of the present macrolactin compounds on the formation of intracellular inflammatory factor, iNOS and COX-2 protein was investigated. Murine macrophage RAW264.7 cells adjusted to 1×10^6 cells/dish were cultured in a 100 mm dish for 24 hours under the conditions mentioned in Example 2 and then further cultured for 16 hours after being treated with the present macrolactin compounds and LPS (0.1 μg/ml, Sigma). The cells were washed 2-3 times with cold PBS and then collected. 100 μl of 50 mM Tris-HCl buffer, pH7.5 (0.1 M KCl, 1 mM EDTA, 1 mM DTT, 0.2 mM PMSF) were added to the collected cells, which were lysed by using liquid nitrogen. The lysate was centrifuged at 4° C. for 10 minutes at 13,000 rpm to collect the supernatant. Protein was quantitatively analyzed by the Bradford method. 50 μg of the protein was subjected to sodium dodecyl sulfate-polyacrylamide gel electrophoresis (SDS-PAGE). The SDS-PAGE gel was transferred to nitrocellulose membrane (Amersham) at 50 V for 2 hours. The nitrocellulose membrane was washed twice with 1× Tris buffered saline (TBS; 0.1 M NaCl, 10 mM Tris-HCl), to which was added 3% gelatin solution for blocking non-specific protein reaction and then reacted at room temperature for 1 hour. […]

iNOS mRNA = test: Expression of iNOS mRNA by real-time PCR in LPS-stimulated RAW264.7 cells; type: cell-based, murine; details: RAW264.7, LPS 0.1 μg/ml, 16 hours; for inhibition of expression of iNOS mRNA: real-time PCR; for inhibition of iNOS mRNA expression compared to hydrocortisone: relative to hydrocortisone (10 μM)
Experimental: as §1
The effect of the present macrolactin compounds on the expression of intracellular inflammatory factors, iNOS and COX-2 mRNA was investigated. Murine macrophage RAW264.7 cells adjusted to 1×10^5 cells/well were cultured in a 6-well plate for 24 hours under the conditions mentioned in Example 2 and then further cultured for 16 hours after being treated with the present macrolactin compounds and LPS (0.1 μg/ml, Sigma). Total RNA of the cultured cells was isolated by Trizol reagent (Sigma) under RNase-free conditions. A cDNA synthesis kit (TAKARA) was used to obtain a template for PCR using the separated total RNA. To the mixture of 1 μl of Oligo dT Primer (50 μM), 1 μl of dNTP Mixture (10 mM each) and 2 μg of the template RNA, RNase-free dH2O was added to adjust the total volume to 10 μl. The mixture was maintained at 65° C. for 5 minutes and then in ice for 2 minutes. To the mixture of 10 μl of the mixture, 4 μl of 5× PrimeScript™ buffer, 0.5 μl of RNase inhibitor (40 U/μl), and 0.5 μl of PrimeScript™ RTase (200 U/μl), RNase-free dH2O was added to adjust the total volume to 20 μl. The mixture was reacted at 42° C. for 30 minutes to synthesize cDNA.
(§3) The extent of iNOS and COX-2 mRNA expression of the mixture was determined by using a real-time gene amplifier (Corbett Life Science Rotor-gene 6000). The operating condition of the real-time gene amplifier was as follows: initial denaturation started at 95° C. for 5 minutes and was then repeated 50 times at 94° C. for 30 seconds, at 57° C. for 30 seconds and 72° C. for 30 seconds. When the mRNA expressions of the samples were compared with each other, that of the housekeeping gene was determined at the same time and then the relative quantity was calculated. By compensating the amount of RNA for the measured value of the housekeeping gene, the amount of mRNA produced in each sample was calculated to Ct (Threshold cycle) value.

[1] = test system: IL-6 formation in RAW264.7 cells; test: Inhibition of IL-6 formation (mouse ELISA kit) in LPS-stimulated RAW264.7 cells; type: cell-based, murine; details: RAW264.7, LPS
Experimental: (§4) The present inventors have confirmed the anti-inflammatory effects of the above macrolactin compounds to accomplish the present invention. In order to investigate the anti-inflammatory effects, a murine macrophage RAW264.7 cell line treated with each of the purified compounds was stimulated by LPS (0.1 μg/mL or 1.0 μg/mL, Sigma), and then the formation of inflammation-inducing substances 1) NO and 2) PEG2 and the expression of enzymes related to their formation were analyzed. The formation of 3) pro-inflammatory cytokines, TNF-α, IL-1β, IL-6 and GM-CSF were also analyzed by the same procedures.
(§5) 3) Suppression of pro-inflammatory cytokines by the present macrolactin compounds was determined by using a mouse ELISA kit (KOMA Biotech).
as §1

[2] = test system: TNF-α formation in RAW264.7 cells; test: Inhibition of TNF-α formation (mouse ELISA kit) in LPS-stimulated RAW264.7 cells; type: cell-based, murine; details: RAW264.7, LPS; for inhibition of TNF-α formation: vs control treated with LPS only
Experimental: as §4, §5, §1

COX-2 protein = test: Formation of COX-2 protein by western blot in LPS-stimulated RAW264.7 cells; type: cell-based, murine; details: RAW264.7, LPS 0.1 μg/ml, 16 hours
Experimental: as §1, §2

[3] = test system: vancomycin-resistant Enterococci (VRE), methicillin-resistant Staphylococcus aureus (MRSA) and Burkholderia cepacia; details: against VRE, compounds from Bacillus subtilis DSM 16696; cited from earlier work
COX-2 mRNA = test: Expression of COX-2 mRNA by real-time PCR in LPS-stimulated RAW264.7 cells; type: cell-based, murine; details: RAW264.7, LPS 0.1 μg/ml, 16 hours
Experimental: as §1
The effect of the present macrolactin compounds on the expression of intracellular inflammatory factors, iNOS and COX-2 mRNA was investigated. Murine macrophage RAW264.7 cells adjusted to 1×10^5 cells/well were cultured in a 6-well plate for 24 hours under the conditions mentioned in Example 2 and then further cultured for 16 hours after being treated with the present macrolactin compounds and LPS (0.1 μg/ml, Sigma). Total RNA of the cultured cells was isolated by Trizol reagent (Sigma) under RNase-free conditions. A cDNA synthesis kit (TAKARA) was used to obtain a template for PCR using the separated total RNA. […]
as §3, with “The operating condition of the real-time gene amplifier was as follows: initial denaturation started at 95° C. for 5 minutes and was then repeated 50 times at 94° C. for 30 seconds, at 57° C. for 30 seconds and 72° C. for 30 seconds.” left out

[4] = test system: murine macrophage RAW264.7; test: Cytotoxicity by MTT analysis; type: cell-based; details: RAW264.7, MTT, 16 hours
Experimental: as §1
MTT analysis was used to investigate the cytotoxic effects on murine macrophage RAW264.7 of the present macrolactin compounds. The cells adjusted to 4×10^4 cells/well were cultured in a 96-well plate for 24 hours under the conditions mentioned in Example 2 and then further cultured for 16 hours after being treated with the present macrolactin compounds. After the medium was removed, 100 μl of MTT solution (2 mg/ml PBS) was added, and then the mixture was cultured in an incubator at 37° C. under 5% CO2 for 4 hours. After the MTT solution was removed, 100 μl of DMSO was added, and then the mixture was shake-cultured for 30 minutes in the dark. After the culture, the amount of free formazan was determined at 540 nm by using an ELISA reader.

[5] = test system: NO formation in RAW264.7 cells; test: Inhibition effect on NO formation (Griess reaction) in LPS-stimulated RAW264.7 cells; type: cell-based, murine; details: RAW264.7, LPS 0.1 μg/ml, 16 hours; MA 1-100 μM, MMA, SMA, hydrocortisone 10 μM; vs control treated with LPS only
Experimental: as §1
NO concentration in cell culture was determined by using a Nitrate/Nitrite colorimetric assay Kit (Cayman). Murine macrophage RAW264.7 cells adjusted to 1×10^5 cells/well were cultured in a 6-well plate for 24 hours under the conditions mentioned in Example 2, and then further cultured for 16 hours after being treated with the present macrolactin compounds and LPS (0.1 μg/ml, Sigma). The cultured media were treated with Griess reagent R1 (sulfanilamide) and then Griess reagent R2 (N-(1-Naphthyl)-ethylenediamine) in a 96-well plate provided by the manufacturer, and then detected the formation of purple azo group from nitrite. The amount of produced NO was calculated using the calibration curve which had been made through the standard solution provided by the manufacturer at an absorbance of 540 nm in a UV spectrometer.

[6] = test system: PGE2 formation in RAW264.7 cells; test: Inhibition effect on PGE2 formation (EIA kit) in LPS-stimulated RAW264.7 cells; type: cell-based, murine; details: RAW264.7, LPS 0.1 μg/ml, 16 hours; vs control treated with LPS only
Experimental: as §1
The amount of formed PGE2, an intracellular […] factor, was determined by using an Amersham prostaglandin E2 biotrak Enzymeimmunoassay (EIA) system Kit (GE Healthcare). Murine macrophage RAW264.7 cells adjusted to 2×10^4 cells/well were cultured in a 96-well plate for 24 hours under the conditions mentioned in Example 2 and then further cultured for 16 hours after being treated with the present macrolactin compounds and LPS (0.1 μg/ml, Sigma). The amount of produced PGE2 was calculated using the calibration curve which had been made through the standard solution provided by the manufacturer at an absorbance of 450 nm in a UV spectrometer. The r^2 value of the calibration curve against the standard substance was above 0.99.

[7] = test system: IL-1β formation in RAW264.7 cells; test: Inhibition of IL-1β formation (mouse ELISA kit) in LPS-stimulated RAW264.7 cells; type: cell-based, murine; details: RAW264.7, LPS
Experimental: as §4, §5
(§6) RAW264.7, a murine macrophage cell line, was obtained from Korean Cell Line Bank (KCLB). It was cultured in Dulvecco's modified Eagle's medium (DMEM, LONZA) containing 10% fetal bovine serum (FBS, LONZA) and 1% penicillin/streptomycin (Sigma) in an incubator at 37° C. under 5% CO2 and then sub-cultured when the cell density reached 80%. After RAW264.7 cells were cultured for 24 hours, MA (1-100 μM), MMA (10 μM), SMA (10 μM) and hydrocortisone (10 μM), which is a well-known substance having anti-inflammatory activity, were added. One hour after the addition, LPS (0.1 or 1.0 μg/ml, Sigma) was added to the mixture, which was then cultured for 8 or 16 hours. […]

[8] = test system: GM-CSF formation in RAW264.7 cells; test: Inhibition of GM-CSF formation (mouse ELISA kit) in LPS-stimulated RAW264.7 cells; type: cell-based, murine; details: RAW264.7, LPS
Experimental: as §4, §5, §6

SMILES | inhibition of formation of iNOS protein (iNOS protein) | inhibition of expression of iNOS mRNA (iNOS mRNA) | inhibition of iNOS mRNA expression compared to hydrocortisone (iNOS mRNA) | inhibition of IL-6 formation [1] | inhibition of TNF-α formation [2] | inhibition of formation of COX-2 protein (COX-2 protein) | anti-bacterial activity [3] | inhibition of expression of COX-2 mRNA (COX-2 mRNA) | cytotoxicity compared to hydrocortisone [4] | inhibition of NO formation [5] | inhibition of PGE2 formation [6] | inhibition of IL-1β formation [7] | inhibition effect on TNF-α formation compared to hydrocortisone / control substances ([2]; relative to hydrocortisone) | inhibition of GM-CSF formation [8]
C[C@@H]1CCC/C=C/C=C/[C@H](O)C[C@@H](O)C/C=C\C=C\[C@@H](OC(=O)CC(=O)O)C/C=C/C=C\C(=O)O1 [MMA, 7-O-malonyl macrolactin A] | strongly inhibited | strongly suppressed; also recorded: strongly inhibited | comparable to or superior to that of hydrocortisone | strongly inhibited | inhibited | strongly inhibited | superior anti-bacterial activity | strongly inhibited | lower cytotoxicities | strongly inhibited; also recorded: low inhibition activities | strongly inhibited |  |  | 
CC1CCC/C=C/C=C/[C@H](O)C[C@@H](O)C/C=C\C=C\[C@@H](O)C/C=C/C=C\C(=O)O1 (stereo partly drawn) [MA, macrolactin A] | strongly inhibited | strongly suppressed; also recorded: strongly inhibited | comparable to or superior to that of hydrocortisone | strongly inhibited | inhibited | strongly inhibited | anti-bacterial effect against MRSA only | strongly inhibited | lower cytotoxicities | strongly inhibited | strongly inhibited | strongly inhibited | especially superior inhibition effect | strongly inhibited
C[C@@H]1CCC/C=C/C=C/[C@H](O)C[C@@H](O)C/C=C\C=C\[C@@H](OC(=O)CCC(=O)O)C/C=C/C=C\C(=O)O1 [SMA, 7-O-succinyl macrolactin A] | strongly inhibited | strongly suppressed; also recorded: strongly inhibited | comparable to or superior to that of hydrocortisone | strongly inhibited | inhibited | strongly inhibited | superior anti-bacterial activity | strongly inhibited | lower cytotoxicities | strongly inhibited; also recorded: low inhibition activities | strongly inhibited | strongly inhibited |  | strongly inhibited
C[C@]12CCC(=O)C=C1CC[C@@H]1[C@@H]2[C@@H](O)C[C@@]2(C)[C@H]1CC[C@]2(O)C(=O)CO [hydrocortisone, reference compound] |  |  |  |  |  |  |  |  |  | strongly inhibited |  |  |  | 
